For orientation: Ki means a measure of affinity in units of concentration, obtained from inhibition or displacement. As a reminder, the EC50 is the concentration that produces a half-maximal response.

These results are taken from patent US6759546B1, “3,5-di-iso-propyl-heptatrienoic acid derivatives having serum glucose reducing activity” (Allergan, Inc., priority 2003, dated 2004).

The target of data set [1] is T1, RXRα (Homo sapiens, UniProt P19793).
T1 construct: expressed in transfected cells
T1 sequence (P19793 1-462): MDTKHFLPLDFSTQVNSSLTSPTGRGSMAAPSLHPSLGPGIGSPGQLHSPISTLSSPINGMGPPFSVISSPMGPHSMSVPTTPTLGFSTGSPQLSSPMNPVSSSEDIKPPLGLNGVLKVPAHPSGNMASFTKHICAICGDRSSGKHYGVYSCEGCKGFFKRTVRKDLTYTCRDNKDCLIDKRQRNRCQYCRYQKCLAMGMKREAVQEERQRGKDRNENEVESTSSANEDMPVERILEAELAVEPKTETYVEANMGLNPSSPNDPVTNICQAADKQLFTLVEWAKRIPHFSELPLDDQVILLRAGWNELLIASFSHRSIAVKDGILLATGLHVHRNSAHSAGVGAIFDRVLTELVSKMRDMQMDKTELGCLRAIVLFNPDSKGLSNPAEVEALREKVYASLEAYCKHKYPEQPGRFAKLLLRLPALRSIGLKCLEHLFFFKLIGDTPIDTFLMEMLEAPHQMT
As to the kind of experiment: ligand binding assay. Conditions: read-out: RXR Bind. Ki α.
Text: (§1) The results of the ligand binding assay are expressed in Ki numbers.

The target in data set [2] is T2, RARα (Homo sapiens, UniProt P10276).
T2 sequence (P10276 1-462): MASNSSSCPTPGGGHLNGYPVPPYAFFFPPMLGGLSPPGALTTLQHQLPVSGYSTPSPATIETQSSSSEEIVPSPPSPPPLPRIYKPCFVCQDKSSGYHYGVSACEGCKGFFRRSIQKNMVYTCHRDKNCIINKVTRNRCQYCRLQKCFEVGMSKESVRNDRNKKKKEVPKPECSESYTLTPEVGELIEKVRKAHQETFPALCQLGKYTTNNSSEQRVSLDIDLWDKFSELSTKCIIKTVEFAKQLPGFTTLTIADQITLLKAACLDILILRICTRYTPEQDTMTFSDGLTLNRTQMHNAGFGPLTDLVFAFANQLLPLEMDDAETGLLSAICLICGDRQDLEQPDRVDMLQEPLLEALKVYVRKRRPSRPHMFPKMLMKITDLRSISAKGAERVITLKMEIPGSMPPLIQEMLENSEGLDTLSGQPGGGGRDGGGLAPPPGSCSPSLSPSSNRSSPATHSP
As to the kind of experiment: ligand binding assay. Conditions: read-out: RAR Bind. Ki α.
Text: as §1

In data set [3] the target is T3, RXRβ (UniProt P28704).
T3 sequence (P28704 1-520): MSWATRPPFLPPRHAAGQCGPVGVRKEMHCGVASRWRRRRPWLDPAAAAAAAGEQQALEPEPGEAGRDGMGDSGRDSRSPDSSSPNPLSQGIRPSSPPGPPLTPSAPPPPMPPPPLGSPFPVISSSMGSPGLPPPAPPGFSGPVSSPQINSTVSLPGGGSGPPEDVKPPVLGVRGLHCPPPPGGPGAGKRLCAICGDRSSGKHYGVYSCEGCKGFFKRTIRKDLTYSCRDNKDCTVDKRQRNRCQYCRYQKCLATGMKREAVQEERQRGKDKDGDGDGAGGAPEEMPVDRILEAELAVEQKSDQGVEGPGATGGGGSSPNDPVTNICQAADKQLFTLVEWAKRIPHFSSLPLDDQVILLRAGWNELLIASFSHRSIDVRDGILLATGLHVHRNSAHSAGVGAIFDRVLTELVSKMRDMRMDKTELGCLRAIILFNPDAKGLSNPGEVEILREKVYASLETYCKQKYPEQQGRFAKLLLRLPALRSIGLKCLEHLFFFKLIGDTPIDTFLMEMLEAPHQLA
As to the kind of experiment: holoreceptor transactivation assay. Conditions: percentage compared to the standard compound.
Text: (§2) The results obtained in this assay are expressed in EC50 numbers, as they are also in the chimeric receptor transactivation assay.
(§3) Particularly, the transactivation data pertaining to activation of the RAR receptors were obtained in the chimeric assay, and the transactivation data pertaining to the activation of RXR receptors were obtained in the holoreceptor assay.

Data set [4] deals with T1, RXRα. As to the kind of experiment: holoreceptor transactivation assay. Conditions: for EC50: holoreceptor assay, read-out: RXR Trans. EC50 α; for RXR Trans. efficacy α: percentage compared to the standard compound. In kind it is cell-based.
Text: as §2, §3
For data set [5], the system named is female diabetic db/db mice. As to the kind of experiment: serum glucose, triglyceride and thyroxine levels in db/db mice. In kind it is in vivo. Conditions: 50 mg/kg oral gavage daily; for Glucose Day 0 / Triglycerides Day 0: day 0 (pre-treatment). How it is done: An assay described below tests the effect of compounds of the invention on serum glucose, tryglyceride and thyroxine levels in female 9-10 weeks old db/db mice.
Blood samples (70 μl) were taken by orbital bleeding at 11:00 AM on day 0 (pre-treatment), day 3, and day 6. On day 7, a blood sample (700 μl) was taken at 11:00 AM and the animals were sacrificed. Glucose, triglyceride and thyroxine (T4) levels were determined on a Boehringer Manheim Hatachi Clinical Chemistry Analyzer using standard protocols provided by the manufacturer and reagents that were supplied in commercially available kits (glucose and T4: Boehringer Manheim; triglycerides: Roche Diagnostics). Seven animals were treated in each group.

For data set [6], the target named is T4, RXRβ (Homo sapiens, UniProt P28702).
T4 sequence (P28702 1-533): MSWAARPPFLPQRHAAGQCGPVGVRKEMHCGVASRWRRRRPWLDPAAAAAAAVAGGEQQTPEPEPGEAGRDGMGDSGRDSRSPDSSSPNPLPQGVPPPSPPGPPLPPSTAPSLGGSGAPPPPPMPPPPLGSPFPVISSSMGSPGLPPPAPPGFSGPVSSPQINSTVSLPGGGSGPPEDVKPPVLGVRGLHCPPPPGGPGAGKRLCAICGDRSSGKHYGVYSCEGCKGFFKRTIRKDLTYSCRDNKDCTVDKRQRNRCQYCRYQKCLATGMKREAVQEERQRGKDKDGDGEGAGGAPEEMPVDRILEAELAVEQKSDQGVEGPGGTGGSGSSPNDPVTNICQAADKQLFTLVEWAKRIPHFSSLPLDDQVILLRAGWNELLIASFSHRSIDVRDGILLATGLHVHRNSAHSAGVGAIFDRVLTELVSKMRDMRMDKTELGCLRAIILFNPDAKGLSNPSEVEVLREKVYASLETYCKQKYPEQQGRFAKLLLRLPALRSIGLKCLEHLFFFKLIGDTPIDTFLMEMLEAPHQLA
As to the kind of experiment: ligand binding assay. Conditions: read-out: RXR Bind. Ki β.
Text: as §1

With `CCCOc1c(\C(=C/C=C/C(C)=C/C(=O)O)CC)cc(C(C)C)cc1C(C)C` [Compound 8, 7-(3,5-Diisopropyl-2-propoxy-phenyl)-3-methyl-nona-2,4,6-trienoic acid], in data set [1], the Ki stood at 1 nM. The inhibitory constant (Ki) in data set [2] turned out to be 170 nM. Further, in data set [3], the “RXR Trans. efficacy β” value amounted to 29%. In data set [4], the EC50 was found to be 1 nM and the “RXR Trans. efficacy α” value is reported as 33%. In addition, in data set [5] (Table 3), the “Glucose Day 0” value amounted to 468 mg/dL; the “Triglycerides Day 0” value is 173 mg/dL; the “Glucose Day 3, 3 h” value is 443 mg/dL; the “Triglycerides Day 3, 3 h” value came to 278 mg/dL. In data set [5] (Table 3), the “Glucose Day 6, 3 h” value is 384 mg/dL and the “T4 Day 7” value was found to be 3.0 µg/dL. In data set [6], the inhibition constant (Ki) is 12 nM.

For `CCCOc1c(\C(C)=C/C=C/C(C)=C/C(=O)O)cc(C(C)C)cc1C(C)C` [Compound 16, 7-(3,5-Diisopropyl-2-propoxy-phenyl)-3-methyl-octa-2,4,6-trienoic acid], the Ki in data set [1] came to 1 nM. In addition, the Ki in data set [2] stood at 310 nM. Further, the “RXR Trans. efficacy β” value in data set [3] stood at 33%. In addition, in data set [4], the concentration giving a half-maximal response (EC50) is 0.4 nM and the “RXR Trans. efficacy α” value came to 34%. In data set [5] (Table 2), the “Glucose Day 0” value stood at 365 mg/dL; the “Triglycerides Day 0” value is 199 mg/dL; the “Glucose Day 3, 3 h” value came to 283 mg/dL; the “Triglycerides Day 3, 3 h” value stood at 189 mg/dL. Further, in data set [5] (Table 2), the “Glucose Day 6, 3 h” value came to 309 mg/dL and the “T4 Day 7” value came to 2.2 µg/dL. In data set [6], the inhibitory constant (Ki) worked out at 12 nM.
